Source: US20260234139A1, “PGDH INHIBITORS AND METHODS OF MAKING AND USING” (Epirium Bio Inc., priority 2023, published 2026)

Tests used:
[1] = target: T1, 15-PGDH/HPGD (Homo sapiens, UniProt P15428); assay: hPGDH inhibitor screening biochemical assay; conditions: 10 nM enzyme, 15 μM Prostaglandin E2, 0.25 mM NAD, fluorescence ex/em 340/485 nm
T1 construct: purchased R&D System 5660-DH
T1 sequence (P15428 1-266): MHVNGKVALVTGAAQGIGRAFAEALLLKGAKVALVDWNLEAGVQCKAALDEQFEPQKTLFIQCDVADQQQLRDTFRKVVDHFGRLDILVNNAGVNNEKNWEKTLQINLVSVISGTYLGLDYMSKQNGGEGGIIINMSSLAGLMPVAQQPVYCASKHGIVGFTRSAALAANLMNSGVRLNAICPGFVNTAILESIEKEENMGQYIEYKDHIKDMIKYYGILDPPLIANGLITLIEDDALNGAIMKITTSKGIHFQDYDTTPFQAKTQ
How it was run: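 Recombinant 15-PGDH (10 nM) preincubated with compound 10 min at 37° C, then 15 μM PGE2 and 0.25 mM NAD⁺ added for 10 min at room temperature in 50 mM Tris-HCl pH 7.5, 0.01% Tween 20. NADH fluorescence at ex/em 340/485 nm; 10-point dose response.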

[2] = system: A549; assay: A549 EC50 (cell assay, method not described); assay type: cell-based; conditions: Homo sapiens, A549, A549

IC50 [1] | EC50 [2] | SMILES
< 100 nM | ≥ 1000 nM | CC1(COC[C@@H](O)c2cnc3c(cnn3-c3ccc(C(=O)O)cc3)c2)CC1 [Compound 106B]
< 100 nM | < 100 nM | O=C(O)c1ccc(-n2ncc3cc([C@@H](O)COCC4CC4)cnc32)cc1 [Compound 107A]
< 100 nM | ≥ 1000 nM | O=C(O)c1ccc(-n2ncc3cc([C@H](O)COCC4CC4)cnc32)cc1 [Compound 107B]
< 100 nM | < 100 nM | C[C@@H](OC1CCC1)[C@H](O)c1cnc2c(cnn2-c2ccc(C(=O)O)cc2)c1 [Compound 108A]
100 to 1000 nM | 100 to 1000 nM | C[C@@H](OC1CCC1)[C@@H](O)c1cnc2c(cnn2-c2ccc(C(=O)O)cc2)c1 [Compound 108B]
100 to 1000 nM | 100 to 1000 nM | C[C@H](OC1CCC1)[C@H](O)c1cnc2c(cnn2-c2ccc(C(=O)O)cc2)c1 [Compound 108C]
< 100 nM | 100 to 1000 nM | C[C@H](OC1CCC1)[C@@H](O)c1cnc2c(cnn2-c2ccc(C(=O)O)cc2)c1 [Compound 108D]
< 100 nM | ≥ 1000 nM | Cc1nn(-c2ccc(C(=O)O)cc2)c2ncc([C@@H](O)COC3CCC3)cc12 [Compound 109A]
< 100 nM | < 100 nM | Cc1nn(-c2ccc(C(=O)O)cc2)c2ncc([C@H](O)COC3CCC3)cc12 [Compound 109B]
< 100 nM | < 100 nM | CNC(=O)c1cccc(-n2ncc3cc([C@@H](O)COC4CCC4)cnc32)c1 [Compound 110A]
≥ 1000 nM | ≥ 1000 nM | CNC(=O)c1cccc(-n2ncc3cc([C@H](O)COC4CCC4)cnc32)c1 [Compound 110B]
< 100 nM | 100 to 1000 nM | CN(C)C(=O)c1cccc(-n2ncc3cc([C@@H](O)COC4CCC4)cnc32)c1 [Compound 111A]
≥ 1000 nM | ≥ 1000 nM | CN(C)C(=O)c1cccc(-n2ncc3cc([C@H](O)COC4CCC4)cnc32)c1 [Compound 111B]
< 100 nM | ≥ 1000 nM | O=C(O)c1ccc(-n2ccc3nc([C@@H](O)COCC4CC4)cnc32)cc1 [Compound 112A]
< 100 nM | 100 to 1000 nM | O=C(O)c1ccc(-n2ccc3nc([C@H](O)COCC4CC4)cnc32)cc1 [Compound 112B]
100 to 1000 nM | ≥ 1000 nM | O=C(O)c1ccc(-n2ncc3cc([C@@H](O)COCC4(C(F)(F)F)CC4)cnc32)cc1 [Compound 113A]
< 100 nM | 100 to 1000 nM | O=C(O)c1ccc(-n2ncc3cc([C@H](O)COCC4(C(F)(F)F)CC4)cnc32)cc1 [Compound 113B]
100 to 1000 nM | ≥ 1000 nM | O=C(O)c1ccc(-n2ncc3cc([C@@H](O)COCC4CC4)ccc32)cc1 [Compound 114A]
< 100 nM | 100 to 1000 nM | O=C(O)c1ccc(-n2ncc3cc([C@H](O)COCC4CC4)ccc32)cc1 [Compound 114B]
< 100 nM | 100 to 1000 nM | O=C(O)c1ccc(-n2ncc3cc([C@@H](O)COC4(C(F)(F)F)CCC4)cnc32)cc1 [Compound 115A]
< 100 nM | < 100 nM | O=C(O)c1ccc(-n2ncc3cc([C@H](O)COC4(C(F)(F)F)CCC4)cnc32)cc1 [Compound 115B]
100 to 1000 nM | ≥ 1000 nM | CC1(C)CC(OC[C@H](O)c2cnc3c(cnn3-c3ccc(C(=O)O)nc3)c2)C1 [Compound 116A]

IC50 [1] | EC50 [2] | SMILES
< 100 nM | ≥ 1000 nM | CC1(C)CC(OC[C@@H](O)c2cnc3c(cnn3-c3ccc(C(=O)O)nc3)c2)C1 [Compound 116B]
< 100 nM | < 100 nM | O[C@@H](COC1CCC1)c1cnc2c(cnn2-c2cncc(-c3nnc[nH]3)c2)c1 [Compound 117A]
< 100 nM | < 100 nM | O[C@H](COC1CCC1)c1cnc2c(cnn2-c2cncc(-c3nnc[nH]3)c2)c1 [Compound 117B]
< 100 nM | < 100 nM | COCCNC(=O)c1ccc(-n2ncc3cc([C@@H](O)COC4CCC4)cnc32)cc1 [Compound 118A]
100 to 1000 nM | 100 to 1000 nM | COCCNC(=O)c1ccc(-n2ncc3cc([C@H](O)COC4CCC4)cnc32)cc1 [Compound 118B]
< 100 nM | 100 to 1000 nM | CSc1ccc(-n2ncc3cc([C@@H](O)COC4CCC4)cnc32)cc1 [Compound 119A]
≥ 1000 nM | ≥ 1000 nM | CSc1ccc(-n2ncc3cc([C@H](O)COC4CCC4)cnc32)cc1 [Compound 119B]
< 100 nM | 100 to 1000 nM | O=C(O)c1ccc(-n2ncc3cc([C@H](O)C4COC4)ccc32)cc1 [Compound 120A]
100 to 1000 nM | 100 to 1000 nM | CS(=O)(=O)c1ccc(-n2ncc3cc([C@@H](O)COC4CCC4)cnc32)cc1 [Compound 121A]
≥ 1000 nM | ≥ 1000 nM | CS(=O)(=O)c1ccc(-n2ncc3cc([C@H](O)COC4CCC4)cnc32)cc1 [Compound 121B]
< 100 nM | ≥ 1000 nM | CSc1cccc(-n2ncc3cc([C@@H](O)COC4CCC4)cnc32)c1 [Compound 122A]
≥ 1000 nM | ≥ 1000 nM | CSc1cccc(-n2ncc3cc([C@H](O)COC4CCC4)cnc32)c1 [Compound 122B]
< 100 nM | < 100 nM | C[S+]([O-])c1ccc(-n2ncc3cc([C@@H](O)COC4CCC4)cnc32)cc1 (stereo partly shown) [Compound 124A]
≥ 1000 nM | ≥ 1000 nM | C[S+]([O-])c1ccc(-n2ncc3cc([C@H](O)COC4CCC4)cnc32)cc1 (stereo partly shown) [Compound 124B]
100 to 1000 nM | 100 to 1000 nM | C[S+]([O-])c1cccc(-n2ncc3cc([C@@H](O)COC4CCC4)cnc32)c1 (stereo partly shown) [Compound 125A]
≥ 1000 nM | ≥ 1000 nM | C[S+]([O-])c1cccc(-n2ncc3cc([C@H](O)COC4CCC4)cnc32)c1 (stereo partly shown) [Compound 125B]
< 100 nM | 100 to 1000 nM | Cc1nn(-c2ccc(C(=O)O)cc2)c2ncc([C@@H](O)COC3CC3)cc12 [Compound 126A]
< 100 nM | 100 to 1000 nM | Cc1nn(-c2ccc(C(=O)O)cc2)c2ncc([C@H](O)COC3CC3)cc12 [Compound 126B]
< 100 nM | ≥ 1000 nM | C[C@H]1C[C@@H](OC[C@H](O)c2cnc3c(cnn3-c3ccc(C(=O)O)cc3)c2)C1 [Compound 127A]
< 100 nM | < 100 nM | C[C@H]1C[C@@H](OC[C@@H](O)c2cnc3c(cnn3-c3ccc(C(=O)O)cc3)c2)C1 [Compound 127B]
100 to 1000 nM | ≥ 1000 nM | C[C@H]1C[C@H](OC[C@H](O)c2cnc3c(cnn3-c3ccc(C(=O)O)cc3)c2)C1 [Compound 127C]
< 100 nM | < 100 nM | C[C@H]1C[C@H](OC[C@@H](O)c2cnc3c(cnn3-c3ccc(C(=O)O)cc3)c2)C1 [Compound 127D]
